As a reminder, the Kd is the concentration at which binding is half-saturated.

Structures are written as SMILES. Entries after “also recorded” stand apart in the source; their conditions may differ.

The target of test [1] is T1, recombinant human E-selectin/CD63E Fc Chimera (Homo sapiens, UniProt P16581).
T1 construct: Fc (human IgG Fc fusion partner); purchased R & D systems
Put plainly: E-Selectin Activity - Analysis by SPR. Format: binding. Conditions: Biacore X100, E-selectin captured on anti-human IgG (Fc) chip. Here is the method: Surface Plasmon Resonance (SPR) measurements were performed on a Biacore X100 instrument (GE Healthcare). A CM5 sensor chip (GE Healthcare) was used for the interaction between E-selectin and GMI compound. Anti-human IgG (Fc) antibody (GE Healthcare) was immobilized onto the chip by amine coupling according to the manufacturer's instructions. In brief, after a 7-min injection (flow rate of 5 μl/min) of 1:1 mixture of N-ethyl-N′-(3-dimethylaminopropyl) carbodiimide hydrochloride and N-hydroxysuccinimide, anti-human IgG (Fc) antibody (25 μg/ml in 10 mM sodium acetate buffer, pH 5.0) was injected using a 6-min injection at 5 μl/min. Remaining activated groups were blocked by injecting 1 M ethanolamine/HCl, pH 8.5. The recombinant human E-selectin/CD63E Fc Chimera (50 μg/ml) (R & D systems) was injected into the experimental cell until 6000-7000 RU was captured onto the antibody surface. No recombinant human E-selectin/CD63E was injected into the control cell. Increasing concentrations of GMI compound samples were injected at 30 μl/min into both flow cells and all sensorgrams were recorded against the control. Regeneration of the anti-human IgG (Fc) surface was achieved by injecting 3M magnesium chloride, followed by 50 mM sodium hydroxide. Data were analyzed using Biacore X100 evaluation/BIA evaluation 4.1.1 software (GE Healthcare) and Graphad prism 6 software.

In test [2] the test system is TNFα-treated nude mice infused with human sickle RBCs. The test is described as follows: Sickle cell vaso-occlusion, intravital microscopy and adhesion in nude mouse model. Format: in vivo, Nude (nu−/nu−) mice. Here is the method: In vivo treatment: Mice were divided into 3 groups. All mice were first injected I.P. with 500 ng TNFα to induce inflammation, activate the endothelium, and allow adhesion of murine leukocytes. After 2 hours, and once the endothelium is activated and murine leukocytes have already adhered, mice were infused with 200 μl of DIL (rhodamine)-labeled human sickle RBCs at 50% hematocrit (less than 10% murine blood volume assuming that blood volume for a 20 g weight mouse is 1.5 ml). We injected I.V. the three animal groups with the first dose of either Compound 45 at 20 μg/kg or 40 μg/kg, or saline (10 mL/kg) as vehicle immediately after infusion of human RBCs. The second dose was given 30 minutes later.
Window chamber surgery: Surgery was performed before TNFα administration. General anesthesia was achieved by exposing nude mice to isoflurane. A double-sided titanium frame window chamber was surgically implanted into the dorsal skin fold under sterile conditions using a laminar flow hood. Surgery involved carefully removing the epidermal and dermal layers of one side of a dorsal skin fold, exposing the blood vessels of the subcutaneous tissue adjacent to the striated muscles of the opposing skin fold, and then securing the two sides of the chamber to the skin using stainless steel screws and sutures. A glass window was placed in the chamber to cover the exposed tissue and secured with a snap ring.
Animal treatments, and fluorescence intravital microscopy: Anesthetized nude mice were first injected with 500 ng TNFα. After two hours, mice were infused with 200 μl DIL (rhodamine)-labeled human sickle RBCs at 50% hematocrit DIL through the dorsal tail vein.
Immediately after human RBC injection, nude mice were then injected I.V. with the first dose of either Compound 45 at 20 μg/kg (n=4) or 40 μg/kg (n=3), or saline (10 mL/kg) as vehicle (n=5). Videos were recorded for 30 minutes at different locations within the dorsal skin-fold window chamber to accurately determine the effects of Compound 45 on human sickle cell adhesion to the vascular endothelium and adherent murine leukocytes, and vaso-occlusion in the nude mice. Thirty minutes later, the second dose of either Compound 45 at 20 μg/kg (n=4) or 40 μg/kg (n=3), or vehicle (n=5) was injected I.V., and intravital microscopy measurements of blood cell flow dynamics in post-capillary venules and arterioles were resumed for another 30 minutes on anesthetized nude mice. Videos were again recorded at different locations within the dorsal skin-fold window chamber to accurately determine the effects of the second dose of Compound 45 on blood cell adhesion to the vascular endothelium, and vaso-occlusion. Videos were produced using 10× and 20× magnifications.
Cell adhesion was quantified on still images by measuring the fluorescence intensity [fluorescence unit (FU)] of adherent fluorescence-labeled human sickle cells using ImageJ software downloaded from the NIH website. Blood flow was also determined by counting the number of vessels with normal blood flow, slow blood flow, and no blood flow by frame-by-frame analysis of video replay. The values were averaged among groups of animals (n=5 for vehicle, n=4 for 40 μg/kg total Compound 45, and n=3 for 80 μg/kg total Compound 45) for non-blinded statistical analysis.
(§1) Method of Analysis: Human sickle RBC adhesion is presented as FU, blood flow as % normal blood flow, % slow blood flow and % no blood flow (or occluded vessels), and circulating human sickle RBCs as number of circulating sickle RBCs.

For test [3] the test system is unchanged. The test is described as follows: Flow cytometry analysis of circulating human sickle RBCs in nude mice. Format: in vivo, Nude (nu−/nu−) mice. The procedure:
Flow cytometry analysis of circulating human sickle RBCs: Following intravital microscopy, blood samples were collected from nude mice treated with vehicle (n=3), 40 μg/kg total Compound 45 (n=3), and 80 μg/kg total Compound 45 (n=2), through cardiac puncture into EDTA tubes to determine the number of circulating human sickle RBCs by flow cytometry.
as §1
Background: A flow cytometer gives signals particle by particle.

Test [4] has as its system TNFα-treated HbSS-Townes mice. Put plainly: Sickle cell vaso-occlusion, intravital microscopy and adhesion in Townes mouse model. Format: in vivo. Here is the method:
In vivo treatment: Townes mice were divided into 3 groups. All mice were first injected I.V. with PE-anti-mouse TER-119 antibody (10 μg/g BW) to label RBCs. Thirty minutes later, animals are injected with 500 ng TNFα I.P. to induce vaso-occlusion. After 90 minutes, and after onset of vaso-occlusion, sickle mice were treated I.V. with the first dose of either Compound 45 at 20 μg/kg or 40 μg/kg, or saline (10 mL/kg) as vehicle. The second dose was given 30 minutes later.
Window chamber surgery: For Townes mice experiments, surgery is carried out under sterile conditions with aseptic technique. Since these mice do have hair, it is necessary to shave and use hair removal cream on the back of the anesthetized mouse prior to cleaning the back of the animals, and performing surgery. Experimental studies are performed immediately after surgery, because in our experience, window chambers are not usable a few days after surgery. The skin is very dry, and blood cells cannot be visualized under the microscopy. In addition, sickle mice have been reported to have a mild inflammatory response to the dorsal skin-fold window chamber implantation, evidenced by elevated levels of serum amyloid P component (SAP) 3 days after surgery.
Intravital microscopy: Anesthetized animals with window chambers were placed on the stage of an Axoplan microscope (Carl Zeiss, Thornwood, N.Y.) and temperature maintained at 37° C. using a thermostatically controlled heating pad. […] Microcirculatory events and cell adhesion were simultaneously recorded using a computer connected to a digital video camera C2400 (Hamamatsu Photonics K.K., Japan). Visible venules were examined for each set of conditions. Arterioles were distinguished from venules based on: 1) observation of divergent flow as opposed to convergent flow; 2) birefringent appearance of vessel walls using transillumination, which is characteristic of arteriolar vascular smooth muscle; and 3) relatively straight vessel trajectory without evidence of tortuosity.
Data Analysis and Statistics were conducted as described above for the nude mouse model.

[5] abbreviates: after second dose of 20 μg/kg I.V.
Setting [6] is: after the first dose of 40 μg/kg I.V.
[7] abbreviates: after two doses of 40 μg/kg I.V.

T1 sequence (P16581 with tags, fused parts or gaps limits assumed): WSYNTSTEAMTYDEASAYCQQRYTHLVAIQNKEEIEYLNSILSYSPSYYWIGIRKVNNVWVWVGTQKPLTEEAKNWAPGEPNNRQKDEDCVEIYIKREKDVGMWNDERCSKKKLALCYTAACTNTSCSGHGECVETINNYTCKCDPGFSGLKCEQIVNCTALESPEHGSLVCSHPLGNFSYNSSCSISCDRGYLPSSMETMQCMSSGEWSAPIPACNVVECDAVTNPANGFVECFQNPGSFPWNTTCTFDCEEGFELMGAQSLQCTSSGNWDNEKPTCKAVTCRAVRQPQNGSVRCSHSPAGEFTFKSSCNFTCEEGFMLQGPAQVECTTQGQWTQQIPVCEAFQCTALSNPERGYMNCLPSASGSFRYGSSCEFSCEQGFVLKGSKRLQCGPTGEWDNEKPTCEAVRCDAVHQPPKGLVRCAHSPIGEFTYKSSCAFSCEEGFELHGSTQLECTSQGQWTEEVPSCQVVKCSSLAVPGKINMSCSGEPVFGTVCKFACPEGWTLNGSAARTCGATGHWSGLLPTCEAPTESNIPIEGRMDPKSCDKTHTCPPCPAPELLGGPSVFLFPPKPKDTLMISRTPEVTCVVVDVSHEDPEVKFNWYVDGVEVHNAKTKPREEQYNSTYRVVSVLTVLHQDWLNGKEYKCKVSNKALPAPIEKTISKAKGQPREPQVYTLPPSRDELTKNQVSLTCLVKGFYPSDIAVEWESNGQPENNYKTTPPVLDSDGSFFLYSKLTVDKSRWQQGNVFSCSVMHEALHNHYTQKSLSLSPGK

Consider `CC[C@H]1C[C@@H](C(=O)NCCNC(=O)NCCNC(=O)[C@@H]2C[C@H](CC)[C@@H](O[C@@H]3O[C@@H](C)[C@@H](O)[C@@H](O)[C@@H]3O)[C@H](O[C@@H]3O[C@H](CO)[C@H](O)[C@H](O[C@@H](CC4CCCCC4)C(=O)N4CCC4)[C@H]3NC(C)=O)C2)C[C@@H](O[C@@H]2O[C@H](CO)[C@H](O)[C@H](O[C@@H](CC3CCCCC3)C(=O)N3CCC3)[C@H]2NC(C)=O)[C@@H]1O[C@@H]1O[C@@H](C)[C@@H](O)[C@@H](O)[C@@H]1O` [Compound 45], for which the dissociation constant (Kd) in test [1] came to 2.1 nM. The “percentage of the total occluded vessel segments” value in test [2] (setting [5]) is recorded as 2%. Also, the “total venules with slow blood flow” value in test [2] (setting [5]) stood at 16%. The “human SSRBC adhesion compared to vehicle” value was “significantly diminished” in test [2] (after second dose of 20 μg/kg I.V. (40 μg/kg total), 30 min interval) and “failed to reduce SSRBC adhesion” in test [2] (one dose of 20 μg/kg I.V.). In addition, the figures for the “percentage of obstructed total vessels” value in test [2] (setting [6]) and in test [2] (setting [7]) were 2% and 4%, respectively. For the same compound, the “vessels with slow blood flow” value in test [2] (setting [6]) is reported as 12%; in test [2] (setting [7]), 8%. Also, the “blood flow in inflamed vessels” value in test [2] (dose not given) and in test [4] (dose not given) was “improves blood flow” in each case. Besides, in test [2] (dose not given), the “human SSRBC adhesion after the inflammatory trigger of vaso-occlusion” value is “reduces human SSRBC adhesion”. Also, the “human SSRBC adhesion” value in test [2] (one dose of 40 μg/kg I.V.) was “marked anti-SSRBC adhesive activity”; in test [2] (two doses of 40 μg/kg I.V. (80 μg/kg total), 30 min interval) it was “marked anti-SSRBC adhesive activity; also recorded: effective in reducing cell adhesion in venules and vaso-occlusion and restoring blood flow”. The “number of circulating human SSRBCs compared to vehicle” value in test [3] (two doses of 20 μg/kg I.V. at 30 min interval) and in test [3] (two doses of 40 μg/kg I.V. at 30 min interval) was “increased significantly” in each case. Also, the “SSRBC adhesion after the inflammatory trigger of vaso-occlusion” value in test [4] (dose not given) is on record as “reduces SSRBC adhesion”. Besides, the “adhesion of the sickle cells” value in test [4] (two 20 μg/kg doses I.V.) is “significantly diminished”; in test [4] (two 40 μg/kg doses I.V. (80 μg/kg total)), “significantly diminished; also recorded: effective in reducing sickle RBCs adhesion in venules and vaso-occlusion and restoring blood flow”. The “reduction of the percentage of the total occluded vessel segments” value in test [4] (two 20 μg/kg doses or two 40 μg/kg doses I.V.) was 80-90%.

These data come from patent US20220257775A1 (GLYCOMIMETICS, INC., priority 2019, published 2022).
